Source: ChEMBL document CHEMBL3259599, “Novel colchicine-site binders with a cyclohexanedione scaffold identified through a ligand-based virtual screening approach” (J Med Chem, 2014)
Activity calls are given as the source filed them. No cut-off for these calls is given here.

What was measured:
CCRF-CEM = experiment: Antiproliferative activity against human CEM cells after 48 to 96 hrs by coulter counter analysis; type: functional, cell-based
L1210 = experiment: Antiproliferative activity against mouse L1210 cells after 48 to 96 hrs by coulter counter analysis; type: functional, cell-based
MDA-MB-231 [1] = experiment: Antimigratory activity against human MDA-MB-231 cells at 2 to 10 uM after 17 hrs by Transwell assay; type: functional, cell-based
Serum = experiment: (§1) Metabolic stability in 10% human serum assessed as compound remaining at 100 uM measured after 3 hrs by HPLC analysis; type: ADME; settings: serum, 3 h, 100 µM
MDA-MB-231 [2] = experiment: Antiinvasive activity against human MDA-MB-231 cells at 2 to 10 uM after 17 hrs by Transwell assay; type: functional, cell-based
[3] = Antiproliferative activity against BAEC after 3 days by coulter counter analysis; type: functional; settings: Bos taurus, 72 h
HeLa = experiment: Antiproliferative activity against human HeLa cells after 4 days by coulter counter analysis; type: functional, cell-based; settings: 96 h
[4] = Antiproliferative activity against MBEC after 3 days by coulter counter analysis; type: functional, Mus musculus
[5] = Antiproliferative activity against HMEC1 after 4 days by coulter counter analysis; type: functional; settings: Homo sapiens, HMEC-1, 96 h
Tubulin (Bos taurus) [6] = biological target: T1, Tubulin (Bos taurus) (UniProt Q6B856+Q862L2+Q862F3); experiment: Displacement of MTC from calf brain tubulin colchicine binding site at 20 uM by fluorescence spectroscopic analysis
Liver = experiment: (§2) Metabolic stability in 50% mouse liver extract assessed as compound remaining at 100 uM measured after 3 hrs by HPLC analysis; type: ADME, tissue-based; settings: 3 h, 100 µM
MDA-MB-231 [7] = experiment: Antiinvasive activity against human MDA-MB-231 cells at 0.4 uM after 17 hrs by Transwell assay; type: functional, cell-based
[8] = Cell cycle arrest in HMEC1 cells assessed as accumulation at subG1 phase at 1 uM after 24 hrs by propidium iodide staining-based flow cytometric analysis; type: functional; settings: Homo sapiens, HMEC-1
Tubulin (Homo sapiens) = Tubulin (Homo sapiens) (UniProt P68371+Q9H4B7+P0DPH7+P68366+Q13509+Q71U36+P04350+Q3ZCM7+P07437+P68363+Q9BQE3+Q6PEY2+Q13885+Q9BVA1+Q9BUF5); experiment: Binding affinity to tubulin in human MDA-MB-231 cells assessed as inhibition of mitotic spindle formation at 1 uM after 8 hrs by DAPI staining-based fluorescence microscopic analysis; type: cell-based
HMEC-1 [9] = experiment: Induction of apoptosis in HMEC1 at 0.3 uM after 24 hrs by propidium iodide staining-based flow cytometric analysis; type: functional; settings: Homo sapiens
Tubulin (Bos taurus) [10] = biological target: T1, Tubulin (Bos taurus); experiment: Displacement of R-PT from calf brain tubulin at 25 degC by fluorescence spectroscopic analysis
[11] = as §1; type: ADME; settings: 10% human serum, read-out: Stability
MDA-MB-231 [12] = experiment: Antimigratory activity against human MDA-MB-231 cells at 0.4 uM after 17 hrs by Transwell assay; type: functional, cell-based
[13] = Cell cycle arrest in HMEC1 cells assessed as accumulation at G2/M phase at 1 uM after 24 hrs by propidium iodide staining-based flow cytometric analysis; type: functional; settings: Homo sapiens, HMEC-1
MDA-MB-231 [14] = experiment: Competitive binding affinity to beta-tubulin in human MDA-MB-231 cells assessed as inhibition of protein-N/N'-ethylene-bis(iodoacetamide) adduct formation at 10 uM preincubated for 16 hrs followed by N/N'-ethylene-bis(iodoacetamide) formation measured after 1.5 hrs by Western blot analysis; type: cell-based
HMEC-1 [15] = experiment: Antivascular activity in HMEC1 cells assessed as destruction of cord like structure at 3 uM after 90 mins by matrigel assay; type: functional, cell-based; settings: Homo sapiens
MDA-MB-231 [16] = experiment: Antiproliferative activity against human MDA-MB-231 cells at 0.4 uM after 17 hrs; type: functional, cell-based
[17] = as §2; type: ADME, tissue-based; settings: 50% mouse liver extract, read-out: Stability

CCC(Nc1ccccc1O)=C1C(=O)CC(c2ccccc2)CC1=O (stereo not given)
IC50 (CCRF-CEM): 15 µM | IC50 (L1210): 13 µM | inhibition (MDA-MB-231 [1]): inactive | Stability (Serum): Unstable | inhibition (MDA-MB-231 [2]): inactive | IC50 [3]: 35 µM | IC50 (HeLa): 11 µM | IC50 [4]: 13 µM | IC50 [5]: 22 µM | inhibition (Tubulin (Bos taurus) [6]): Active | Stability (Liver): Unstable

COc1ccccc1NC(C)=C1C(=O)CC(c2ccccc2)CC1=O (stereo not given)
inhibition (MDA-MB-231 [7]): Active | IC50 (CCRF-CEM): 0.18 µM | Activity [8]: Active | inhibition (Tubulin (Homo sapiens)): Active | IC50 (L1210): 0.16 µM | Activity (HMEC-1 [9]): Active | Ka (Tubulin (Bos taurus) [10]): 9.6 ×10⁶ /M | remaining at 3 h, 100 µM [11]: 70% | IC50 [3]: 0.09 µM | inhibition (MDA-MB-231 [12]): Active | Activity [13]: Active | IC50 (HeLa): 0.18 µM | inhibition (MDA-MB-231 [14]): Active | Activity (HMEC-1 [15]): Active | IC50 [4]: 0.12 µM | IC50 [5]: 0.09 µM | Activity (MDA-MB-231 [16]): Active | inhibition (Tubulin (Bos taurus) [6]): Active | remaining at 3 h, 100 µM [17]: > 90%
